Each structure is given as a SMILES string. Active and inactive are the calls of the source. No cut-off for these calls is given here.

The subject of data set [1] is RAW264.7. The data set is described as follows: Antiinflammatory activity in mouse RAW264.7 cells assessed as inhibition of LPS-induced IL-10 release incubated for 4 hrs prior to LPS challenge measured after 24 hrs by ELISA. The format is functional, cell-based.
For data set [2], the system named is RAW264.7. The data set is described as follows: Antiinflammatory activity in mouse RAW264.7 cells assessed as inhibition of LPS-induced IL-1beta release at 0.5 to 100 ug/ml incubated for 4 hrs prior to LPS challenge measured after 24 hrs by ELISA. It is filed as functional, cell-based.
Data set [3] relates to RAW264.7. The experiment in a line: Antiinflammatory activity in mouse RAW264.7 cells assessed as inhibition of LPS-induced TNF-alpha release incubated for 4 hrs prior to LPS challenge measured after 24 hrs by ELISA. The format is functional, cell-based.
Data set [4] deals with RAW264.7. The data set is described as follows: Antiinflammatory activity in mouse RAW264.7 cells assessed as inhibition of LPS-induced IL-1beta release incubated for 4 hrs prior to LPS challenge measured after 24 hrs by ELISA. The format is functional, cell-based.
For data set [5], the system named is RAW264.7. The experiment in a line: Antiinflammatory activity in mouse RAW264.7 cells assessed as inhibition of LPS-induced IL-6 release at 0.5 to 100 ug/ml incubated for 4 hrs prior to LPS challenge measured after 24 hrs by ELISA. The format is functional, cell-based.
For data set [6], the system named is RAW264.7. The experiment in a line: Antiinflammatory activity in mouse RAW264.7 cells assessed as inhibition of LPS-induced IL-10 release at 0.5 to 100 ug/ml incubated for 4 hrs prior to LPS challenge measured after 24 hrs by ELISA. The format is functional, cell-based.
The next data set relates to HEK293. The experiment in a line: (§1) Inhibition of LPS-induced NF-kappaB activation in HEK293 cells incubated for 4 hrs prior to LPS challenge measured after 48 hrs by luciferase reporter gene assay. It is filed as cell-based. As to conditions: Homo sapiens.
Data set [7] can be described thus: as §1. It is filed as cell-based. The note with it: Homo sapiens.
For data set [8], the system named is RAW264.7. The data set is described as follows: Cytotoxicity against mouse RAW264.7 cells up to 50 ug/ml after 24 hrs by MTT assay in presence of LPS. The note with it: raw264.7, 24 h. It is filed as cell-based.
The subject of data set [9] is RAW264.7. The data set is described as follows: Antiinflammatory activity in mouse RAW264.7 cells assessed as inhibition of LPS-induced IL-6 release incubated for 4 hrs prior to LPS challenge measured after 24 hrs by ELISA. The format is functional, cell-based.
Data set [10] relates to RAW264.7. The experiment in a line: Antiinflammatory activity in mouse RAW264.7 cells assessed as inhibition of LPS-induced TNF-alpha release at 0.5 to 100 ug/ml incubated for 4 hrs prior to LPS challenge measured after 24 hrs by ELISA. It is filed as functional, cell-based.

In the case of `C[C@@H]1CC[C@]2(C(=O)O)CC[C@]3(C)C(=CC[C@@H]4[C@@]5(C)C[C@@H](O)[C@@H](O)[C@@](C)(CO)[C@@H]5CC[C@]43C)[C@@H]2[C@]1(C)O`, the IC50 worked out at 10.4 µM with RAW264.7 [1]; 14.3 µM in the data set with RAW264.7 [3]; 8.53 µM in the data set with RAW264.7 [4]; 23.2 µM in data set [7]; 8.04 µM in the data set with RAW264.7 [9]. Besides, the inhibition result in the data set with RAW264.7 [2], with RAW264.7 [5], in the data set with RAW264.7 [6] and in the data set with RAW264.7 [10] was “Active” in each case. Besides, the inhibition entry in the data set with HEK293 is “Dose-dependent effect”. In addition, the Activity entry with RAW264.7 [8] was “Non-toxic”.

Regarding `C[C@]1(CO)CC[C@]2(C(=O)O[C@@H]3O[C@H](CO)[C@@H](O)[C@H](O)[C@H]3O)CC[C@]3(C)C(=C2C1)CC[C@@H]1[C@@]2(C)C[C@@H](O)[C@H](O)[C@@](C)(CO)[C@@H]2CC[C@]13C`, the inhibition result in the data set on RAW264.7 [2], in the data set on RAW264.7 [5], in the data set with RAW264.7 [6] and in the data set on RAW264.7 [10] was “Active” each time. In the data set on HEK293, the inhibition result was “Dose-dependent effect”. The same compound had an IC50 in [7] of 65.6 µM. Also, the Activity result in the data set with RAW264.7 [8] is on record as “Non-toxic”.

Turning to `C[C@@H]1CC[C@]2(C(=O)O)CC[C@]3(C)C(=CC[C@@H]4[C@@]5(C)C[C@@H](O)[C@@H](O)C(C)(C)[C@@H]5CC[C@]43C)[C@@H]2[C@]1(C)O` [EUSCAPHIC ACID], the inhibition result in the data set with HEK293 was “Dose-dependent effect”. Further, it took 175 µM to reach half-maximal inhibition in data set [7] (IC50). For the same compound, the Activity entry in the data set on RAW264.7 [8] is “Non-toxic”.

Take `C[C@@H]1CC[C@]2(C(=O)O)CC[C@]3(C)C(=CC[C@@H]4[C@@]5(C)C[C@@H](O)[C@H](O)[C@@](C)(CO)[C@@H]5CC[C@]43C)[C@@H]2[C@]1(C)O`: the inhibition entry in the data set with RAW264.7 [2], in the data set on RAW264.7 [5], with RAW264.7 [6] and in the data set on RAW264.7 [10] was “Active” in each case. Also, the inhibition entry in the data set on HEK293 is “Dose-dependent effect”. For the same compound, half-maximal inhibition in [7] (IC50) was put at 79 µM. For the same compound, in the data set on RAW264.7 [8], the Activity entry is reported as “Non-toxic”.

The record behind these values is ChEMBL document CHEMBL2384960, “Anti-inflammatory secondary metabolites from the leaves of Rosa laevigata” (Bioorg Med Chem, 2013).
